Measured values: patent US9708628B2, “Cationic lipid having improved intracellular kinetics” (NOF CORPORATION, priority 2011, dated 2017)
One block for each compound: values may come before it.

Experiments:
[1] = tested on: HT1080 cells; test: Endosomal escape efficiency (rhodamine-pDNA, Lysotracker Green, 6 hr); type: cell-based; settings: 6 hr after transfection
Protocol: For MEND preparation, the Rhodamine-labeled pDNA prepared by the method of [Experimental Example 1] (4) was used. When MEND encapsulating rhodamine-labeled pDNA was prepared, 50% of the pDNA solution described in [Experimental Example 1] (1) was replaced by rhodamine-labeled pDNA.
MENDs having a composition of B-2-4 (Example 4):DOPE:Chol=3:3:4, B-2 (Example 1):SOPE:Chol=5:3:2 were prepared by the method described in [Experimental Example 1] (2). For the preparation, PEG2000-DMG was used as PEG lipid, and MEND solutions corresponding to 0.55 mM of the lipid concentration were prepared.
HT1080 cells were plated on a glass bottom dish at 5×10^4 cells/2 mL/dish 24 hr before. MEND was diluted with DMEM (FBS 10%+) to achieve pDNA 1.6 μg/2 mL and transfected into cells. After 5.5 hr, Lysotracker Green (Life technologies) was added at 2 μL/dish. 6 hr after the transfection, the cells were washed twice with heparin (20 units/mL, 2 mL), Krebs buffer (1 mL) was added, and the cells were observed by a confocal laser scan microscope.
Rhodamine-labeled pDNA, endosome/lysosome and nucleus were shown in pseudo colors of red, green and blue, respectively. The endosomal escape efficiency was calculated according to the following formula.

[2] = tested on: liver; test: Time course of gene expression activity in the liver (IVIS imaging, total luminescence in abdomen); type: in vivo, ICR mice; settings: for luminescence / gene expression time course: 40 μg DNA, tail vein
From the text: As a DNA to be mounted on MEND composed of B-2 in this case, […]-Luc(0) described in WO 2011/132713 was used as pDNA completely excluding CpG sequence known to induce immune response and, as a general pDNA having a CpG sequence, a plasmid DNA (pcDNA3.1-Luc(+); CpG sequence total 425) containing a CpG sequence in the back bone of the plasmid DNA and having a CpG sequence even between the initiation codon and the stop codon of the luciferase sequence (marker gene) was used. In gene transfer using cationic MEND and in vivo […]-Luc(0) alone was used. 6, 24, 72 hr later, luciferin (in vivo grade, Promega) corresponding to 3 mg was intraperitoneally administered to the mice, and imaging was performed using IVIS LuminaII (Caliper Life Sciences). As for MEND composed of B-2, imaging was performed about twice a week even after 72 hr. The total luminescence amount in the mouse abdomen was calculated as photon/sec from the obtained images, and used as an index of gene expression activity in the liver.

[3] = tested on: liver, lung and spleen; test: Gene expression activity in liver, lung and spleen after tail vein administration of MEND; type: in vivo, ICR mice; settings: 40 μg DNA
Protocol: A solution of pDNA encoding luciferase gene and protamine (maker) solution were diluted with 10 mM HEPES buffer to 0.3 mg/mL and 0.24 mg/mL, respectively. […] A solution (750 μL) of the electrostatic complex composed of gene and protamine was mixed with the lipid solution (750 μL), and the mixture was quickly stirred, diluted with 10 mM HEPES solution (pH 5.3) to 15 mL, and subjected to ultrafiltration using Amicon® Ultra-15 100K device at 3,000 rpm, 15 min, 25° C. The solution after ultrafiltration was diluted with 100 mM HEPES buffer (pH 7.4), and subjected to the ultrafiltration again. The solution was diluted with 10 mM HEPES buffer to 750 μL. […] The mice were euthanized by a cervical spine […] method 6, 24, 48, 72 hr later, and the liver, lung and spleen were isolated and frozen with liquid nitrogen. They were thawed in a Lysis buffer to prepare homogenates. They were centrifuged at 13,000 rpm, 10 min, 4° C., and the supernatant was collected and used as a measurement sample. The sample solution (20 μL) was mixed with a luciferase substrate (50 μL), and the luciferase activity was measured using Luminescenser-PSN (AB2200 ATTO). In addition, the concentration of the protein in the sample was quantified using a BCA protein assay kit, and the gene expression activity was measured as RLU/mg protein.

[4] = Particle size and surface potential of siRNA MENDs prepared by t-BuOH injecting method; type: physicochemical; settings: siRNA MEND, cationic lipid/cholesterol=70/30, DMG-PEG2000 3%
Protocol: A lipid solution in t-BuOH with a composition of cationic lipid/cholesterol=70/30, DMG-PEG2000 3% and a total lipid amount of 3000 nmol/400 μL (7.5 mM) was prepared in a 1.7 mL tube. In a separate 1.7 mL tube, an siRNA solution was prepared by mixing an siRNA aqueous solution containing siRNA (160 μg) and 20 mM malate buffer (pH 4.00, 30 mM NaCl) to total 50 μL. With vigorous stirring of the lipid solution, the siRNA solution was gradually added dropwise, and the mixed solution was taken in a 1 mL syringe. Then, 20 mM malate buffer (pH 4.00, 30 mM NaCl, 2 mL) was added into a 5 mL tube, and the mixed solution was gradually injected with vigorous stirring. Thereafter, the mixture was further diluted with PBS (7 mL) and centrifuged at 1000 g, 30° C. for 10 min in Amicon Ultra-15-100K to a volume of less than 1.5 mL. PBS (15 mL) was added, and the solution was centrifuged again to about 500-1000 μL. Finally, the MEND solution was adjusted by diluting with PBS to the object lipid concentration.
The particle size and surface potential of various MENDs were measured according to the method described in [Experimental Example 2] and the results are shown in Table 6.

SMILES: CC1=C(/C=C/C(C)=C/C=C/C(C)=C/C(=O)OCCCN(C)CCSSCCN(C)CCCOC(=O)/C=C(C)/C=C/C=C(C)/C=C/C2=C(C)CCCC2(C)C)C(C)(C)CCC1 [Example B-2-4]
endosomal escape efficiency [1]: significantly higher endosomal escape efficiency than B-2

SMILES: CCCCCCCCCCCCCC(=O)OCCCN(C)CCSSCCN(C)CCCOC(=O)CCCCCCCCCCCCC [Example B-2]
time at which luminescence completely disappeared ([2]; pCpGfree-Luc(0)): 18 days
luminescence / gene expression time course ([2]; pCpGfree-Luc(0)): luminescence amount increased from 6 hr to 24 hr later, after which the luminescence amount was retained for the subsequent one week
luminescence / gene expression time course ([2]; pcDNA3.1-Luc(+)): weak luminescence 6 hr later, after which the gene expression decreased
gene expression activity in the lung and spleen (organ selectivity) [3]: background-level
time of peak/maximum gene expression activity ([3]; liver): 48 h

PDI [4]: 0.076
size (nm) [4]: 110 nm
zeta (mV) [4]: −9.5 mV
SMILES: Cc1c(C)c2c(c(C)c1OC(=O)CCC(=O)OCCCN(C)CCSSCCN(C)CCCOC(=O)CCC(=O)Oc1c(C)c(C)c3c(c1C)CCC(C)(CCCC(C)CCCC(C)CCCC(C)C)O3)CCC(C)(CCCC(C)CCCC(C)CCCC(C)C)O2 (stereo not drawn) [Example B-2-5]
